The supplement of paper PMC13380429

What was measured:
Conditions in all cases: 72 h
Calu-3 [1] = assay: relative viability EC50 (midpoint between 100% and the lowest measured viability); higher = less toxic
U2OS [2] = assay: as above
Caco-2 [3] = assay: as above
Vero E6 [4] = assay: as above
Calu-3 [5] = assay: drug sensitivity score (DSS) for viability; higher = more toxic; extreme values may be limits of the assay
U2OS [6] = assay: as above
HepG2 [7] = assay: as above
Caco-2 [8] = assay: as above
Vero E6 [9] = assay: as above
Calu-3 [10] = assay: cell viability relative to DMSO; higher = less toxic
U2OS [11] = assay: as above
HepG2 [12] = assay: as above
Caco-2 [13] = assay: as above
Vero E6 [14] = assay: as above
HepG2 [15] = assay: relative viability EC50 (midpoint between 100% and the lowest measured viability); higher = less toxic

Row | SMILES | relative viability EC50 (Calu-3 [1]) [µM] | relative viability EC50 (U2OS [2]) [µM] | relative viability EC50 (Caco-2 [3]) [µM] | relative viability EC50 (Vero E6 [4]) [µM] | drug sensitivity score (Calu-3 [5]) | drug sensitivity score (U2OS [6]) | drug sensitivity score (HepG2 [7]) | drug sensitivity score (Caco-2 [8]) | drug sensitivity score (Vero E6 [9]) | cell viability (Calu-3 [10]; 1 nM) [%] | cell viability (Calu-3 [10]; 10 nM) [%] | cell viability (Calu-3 [10]; 100 nM) [%] | cell viability (Calu-3 [10]; 1000 nM) [%] | cell viability (Calu-3 [10]; 10000 nM) [%] | cell viability (U2OS [11]; 1 nM) [%] | cell viability (U2OS [11]; 10 nM) [%] | cell viability (U2OS [11]; 100 nM) [%] | cell viability (U2OS [11]; 1000 nM) [%] | cell viability (U2OS [11]; 10000 nM) [%] | cell viability (HepG2 [12]; 1 nM) [%] | cell viability (HepG2 [12]; 10 nM) [%] | cell viability (HepG2 [12]; 100 nM) [%] | cell viability (HepG2 [12]; 1000 nM) [%] | cell viability (HepG2 [12]; 10000 nM) [%] | cell viability (Caco-2 [13]; 1 nM) [%] | cell viability (Caco-2 [13]; 10 nM) [%] | cell viability (Caco-2 [13]; 100 nM) [%] | cell viability (Caco-2 [13]; 1000 nM) [%] | cell viability (Caco-2 [13]; 10000 nM) [%] | cell viability (Vero E6 [14]; 1 nM) [%] | cell viability (Vero E6 [14]; 10 nM) [%] | cell viability (Vero E6 [14]; 100 nM) [%] | cell viability (Vero E6 [14]; 1000 nM) [%] | cell viability (Vero E6 [14]; 10000 nM) [%] | relative viability EC50 (HepG2 [15]) [µM]
1 | Nc1n[n+]([O-])c2ccccc2[n+]1[O-] [tirapazamine] | > 10 | > 10 | > 10 | > 10 | 0 | 0 | 2.8 | 0 | 0 | 104 | 103 | 107 | 97.8 | 102 | 100 | 98.9 | 99.1 | 97.8 | 99 | 92.3 | 91.1 | 93.2 | 88.9 | 63.9 | 99.9 | 102 | 92.3 | 94.8 | 90.4 | 101 | 97.6 | 101 | 95.6 | 90.7 | –
2 | COc1cc2c(cc1OCCCN1CCCC1)N=C(N)C21CCC1 [A-366] | > 10 | > 10 | > 10 | > 10 | 0 | 0 | – | 0 | 0 | 97.3 | 106 | 102 | 103 | 95.4 | 103 | 102 | 98.9 | 105 | 95.2 | – | – | – | – | – | 91.2 | 95.4 | 97.5 | 104 | 92 | 101 | 98.1 | 93.6 | 94.4 | 97.8 | –
3 | C[C@H](NC(=O)Cc1cc(F)cc(F)c1)C(=O)N[C@H](C(=O)OC(C)(C)C)c1ccccc1 [DAPT] | > 10 | > 10 | > 10 | > 10 | 0 | 0 | – | 0 | 0 | 105 | 100 | 112 | 91.1 | 103 | 106 | 106 | 105 | 97.7 | 101 | – | – | – | – | – | 108 | 109 | 116 | 99.8 | 96.1 | 98.3 | 108 | 103 | 105 | 102 | –
4 | O=C(NCCS(=O)(=O)c1ccc(C(F)(F)F)cn1)c1ccc(Cl)cc1 [GSK3787] | > 10 | – | > 10 | > 10 | 0 | – | 0 | 0 | 0 | 104 | 94.8 | 103 | 100 | 97.7 | – | – | – | – | – | 97.7 | 102 | 117 | 99.6 | 102 | 99.8 | 95.5 | 102 | 99.7 | 99.8 | 97.8 | 97.3 | 91.2 | 89.9 | 101 | > 10
5 | Cc1c(I)c(=O)n(-c2ccccc2)n1C [iodoantipyrine] | > 10 | – | > 10 | > 10 | 0 | – | 0 | 0 | 0 | 105 | 106 | 96.1 | 93.7 | 93.2 | – | – | – | – | – | 94.7 | 102 | 95 | 102 | 91.2 | 107 | 104 | 94.8 | 99.4 | 98.7 | 98.8 | 93.3 | 96.9 | 95.3 | 101 | > 10
6 | Clc1ccc2c(NCCNc3ccnc4cc(Cl)ccc34)ccnc2c1 [NSC-5844] | > 10 | > 10 | > 10 | > 10 | 0 | 0 | – | 0.4 | 0 | 97.8 | 98.3 | 103 | 96.9 | 96.1 | 97.3 | 96.6 | 100 | 94.9 | 96.7 | – | – | – | – | – | 98.6 | 102 | 106 | 117 | 76.9 | 88 | 95.2 | 96.2 | 94.5 | 101 | –
7 | COc1ccc2nc(NC(=O)Nc3ccccc3)sc2c1 [frentizole] | > 10 | > 10 | > 10 | > 10 | 0 | 0 | 3.7 | 1.2 | 0 | 110 | 99.4 | 93.7 | 107 | 91.1 | 95.7 | 97.2 | 97 | 95 | 95.3 | 101 | 105 | 93.8 | 89.7 | 56.8 | 103 | 98.3 | 88 | 88.2 | 87.9 | 100 | 105 | 98.6 | 97.1 | 97.5 | –
8 | CN1CCN(C2=Cc3ccccc3Oc3ccc(Cl)cc32)CC1 [2-CMDO] | > 10 | > 10 | > 10 | > 10 | 0 | 0 | – | 0 | 0 | 103 | 102 | 98.2 | 112 | 95.6 | 101 | 98.6 | 96.7 | 100 | 90.1 | – | – | – | – | – | 107 | 90.6 | 99.7 | 103 | 92.3 | 102 | 99.5 | 103 | 103 | 93.3 | –
